Reference: patent US20260365677A1, “NEW CONTRAST AGENTS FOR USE IN DIAGNOSTIC IMAGING” (Bayer Aktiengesellschaft, priority 2022, published 2026)

Tests used:
OATP1B3 = target: T1, OATP1B3 (Homo sapiens, UniProt Q9NPD5); assay: Uptake into stable transfected OATP1B3 HEK 293 cells; type: cell-based; conditions: 100 μM, 40 min, relative to RC1 (Gd-EOB-DTPA)
T1 construct: expressed in transfected cells
T1 sequence (Q9NPD5 1-702): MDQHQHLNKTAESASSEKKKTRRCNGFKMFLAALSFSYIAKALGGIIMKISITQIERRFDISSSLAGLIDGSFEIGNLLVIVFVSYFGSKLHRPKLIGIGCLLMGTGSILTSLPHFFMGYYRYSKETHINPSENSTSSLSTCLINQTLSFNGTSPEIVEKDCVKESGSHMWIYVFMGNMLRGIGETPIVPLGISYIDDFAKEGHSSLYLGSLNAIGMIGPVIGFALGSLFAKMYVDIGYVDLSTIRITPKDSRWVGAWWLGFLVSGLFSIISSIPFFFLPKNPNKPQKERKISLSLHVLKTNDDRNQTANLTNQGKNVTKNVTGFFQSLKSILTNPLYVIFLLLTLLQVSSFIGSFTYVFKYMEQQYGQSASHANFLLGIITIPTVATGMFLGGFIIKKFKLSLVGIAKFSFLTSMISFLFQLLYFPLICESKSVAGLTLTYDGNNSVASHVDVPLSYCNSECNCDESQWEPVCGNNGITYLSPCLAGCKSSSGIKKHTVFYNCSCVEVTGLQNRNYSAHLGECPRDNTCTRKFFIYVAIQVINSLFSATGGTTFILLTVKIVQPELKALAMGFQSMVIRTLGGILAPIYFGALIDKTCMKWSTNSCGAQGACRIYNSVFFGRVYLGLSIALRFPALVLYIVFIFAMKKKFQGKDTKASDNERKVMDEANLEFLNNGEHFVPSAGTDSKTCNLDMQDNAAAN
Experimental: Human transfected OATP1B3 human embryonic kidney 293 cells (OATP1B3 HEK 293, SLCO1B3, Entrez Gene ID: 28234) were used (Leonhardt M et al. Drug Metab Dispos. 2010 July; 38(7):1024-8). The following culture medium was used: 500 mL DMEM (Dulbecco's Modified Eagle Medium—high Glucose, D6429), 50 mL FCS (fetal bovine serum, Fa. Sigma, F7524), 5.8 mL G418 (Geneticin, Fa. Gibco 10131-027) and 5 mL Pen-Strep. (Penicillin-Streptomycin, Fa. Gibco, Ref 15140-122). Cryopreserved cells were shortly thawed in water bath and diluted in 10 mL warm culture medium (37 °C). After medium change the cells were grown for 3d in a 25 cm^2 cell culture flask. After 3 to 5d the cells were transferred into 75 cm^2 flasks. For the splitting of cells these were incubated with 1.5 mL trypsin (Trypsin-EDTA (1×) 0.05%, Ref 25300-054 100 ml, Fa. Gibco) for 3-5 min in the incubator (37 °C, 5% CO2 and 95% oxygen). After centrifugation and washing with medium the cells were counted (50 μL cell suspension and 50 μL trypan blue (Trypan Blue Solution, 93595-50 ml, Fa. Fluka). Cells were cultured (1×10^5 cells/well) in poly-D-lysine coated 24-well plates (Fa. Corning, Ref: 354414) in 1.5 mL medium per well. After 48 hours in the incubator the medium was changed and 1.5 mL/well sodium butyrate containing medium were added (40 mL culture medium plus 400 μL Na-Butyrate, Fa. Sigma Aldrich B5887-5G, 250 mg in 2.27 mL MilliQ water). After 24 hours in the incubator the medium was vacuumed off and 1.5 mL transport buffer was added and incubated for 10 min. The transport buffer contains the following ingredients: 500 mL HBSS (Hank's balanced salt solution, Hyclone, SH30268.01), 5 mL HEPES buffer (4-(2-hydroxyethyl)-1-piperazine-ethanesulfonic acid, Gibco 15630-056) and 3.9 mL glucose (Sigma, G8270-100, 90 g/200 mL MilliQ water). All test items were prepared in transport buffer at a final concentration of 100 μM from stock solutions (180 to 500 mM concentration). The OATP1B3 HEK 293 cells were incubated with test solutions (test item in transport buffer 500 μL) for 40 min on a thermoshaker without shaking (PHMP, Fa. Grant Bio). Triplicates were performed for each test item. After incubation the cells were washed with 2 mL of cold PBS (+) buffer (Dulbeccos PBS+, Fa. Gibco). […] As a reference standard Gd-EOB-DTPA (gadoxetate) is used in the same well plate. The OATP1B3 HEK 293 uptake of the test compound is calculated relative to gadoxetate (resulting in the unit % of RC1).

[1] = test system: freshly isolated rat hepatocytes; assay: Uptake into freshly isolated rat hepatocytes; type: cell-based; conditions: 100 μmol Gd/L, 10 min, 37 °C, relative to RC1 (Gd-EOB-DTPA)
Experimental: Triplicates were performed for each test item.

[2] = Partition coefficient (log P butanol/buffer); type: physicochemical; conditions: 50 mM Tris-HCl, pH 7.4, 10 μM, room temperature
Experimental: The partition coefficient P (log P=log(Cbutanol/Cbuffer)) was determined in buffered aqueous solution (10 μM of compound in 0.5 mL 50 mM Tris-HCl saturated with Butanol, pH 7.4) and 1-butanol 1+1 and the mixture was shaken for 2 h at room temperature (n=3). The Gd-concentrations in each phase. CObutano, and Cbuffer were measured by ICP-MS (The Chemistry of Contrast Agents in Medical Magnetic Resonance Imaging” 2nd Ed. Merbach A S, Helm L, Toth E, eds. Hoboken, NJ: Wiley 2013).

SMILES	Uptake into OATP1B3-HEK 293 cells (OATP1B3)	Uptake rat hepatocytes [1]	Log P [2]
COCCOCCOCCOc1ccc(C[C@@H]2CN(CC(=O)[O-])CCN(CC(=O)[O-])CCN(CC(=O)O)CCN2CC(=O)[O-])cc1.[Gd+3] [Example 3, Gadolinium-2,2′,2″-[(2R)-10-(carboxymethyl)-2-(4-{2-[2-(2-methoxyethoxy)ethoxy]ethoxy}benzyl)-1,4,7,10-tetraazacyclododecane-1,4,7-triyl]triacetate]	28 % of RC1	49 % of RC1	−2.05
CCOc1ccc(C[C@H]2CN(CC(=O)[O-])CCN(CC(=O)[O-])CCN(CC(=O)O)CCN2CC(=O)[O-])cc1.[Gd+3] (single isomer, unassigned; stereoisomer 1) [Example 10]	80 % of RC1	104 % of RC1	−1.34
CCOc1ccc(CC2CN(CC(=O)[O-])CCN(CC(=O)[O-])CCN(CC(=O)O)CCN2CC(=O)[O-])cc1.[Gd+3] (single isomer, unassigned; diastereomer 1) [Example 8, Gadolinium-2,2′,2″-[10-(carboxymethyl)-2-(4-ethoxybenzyl)-1,4,7,10-tetraazacyclododecane-1,4,7-triyl]triacetate (racemic diastereomer 1)]	94 % of RC1	143 % of RC1	−1.33
CCOCCOc1ccc(C[C@H]2CN(CC(=O)[O-])CCN(CC(=O)[O-])CCN(CC(=O)O)CCN2CC(=O)[O-])cc1.[Gd+3] [Example 4, Gadolinium-2,2′,2″-{(2S)-10-(carboxymethyl)-2-[4-(2-ethoxyethoxy)benzyl]-1,4,7,10-tetraazacyclododecane-1,4,7-triyl}triacetate]	103 % of RC1	67 % of RC1	−1.57
CCCCOc1ccc(C[C@H]2CN(CC(=O)[O-])CCN(CC(=O)[O-])CCN(CC(=O)O)CCN2CC(=O)[O-])cc1.[Gd+3] (single isomer, unassigned; stereoisomer 1) [Example 12]	66 % of RC1	110 % of RC1	−0.45
CCCCOc1ccc(C[C@H]2CN(CC(=O)[O-])CCN(CC(=O)[O-])CCN(CC(=O)O)CCN2CC(=O)[O-])cc1.[Gd+3] (single isomer, unassigned; stereoisomer 2) [Example 13]	383 % of RC1	137 % of RC1	
COCCOCCOCCOc1ccc(C[C@H]2CN(CC(=O)[O-])CCN(CC(=O)[O-])CCN(CC(=O)O)CCN2CC(=O)[O-])cc1.[Gd+3] [Example 1, Gadolinium-2,2′,2″-[(2S)-10-(carboxymethyl)-2-(4-{2-[2-(2-methoxyethoxy)-ethoxy]ethoxy}benzyl)-1,4,7,10-tetraazacyclododecane-1,4,7-triyl]triacetate]	79 % of RC1	47 % of RC1	−2.12
CCOc1ccc(CC2CN(CC(=O)[O-])CCN(CC(=O)[O-])CCN(CC(=O)O)CCN2CC(=O)[O-])cc1.[Gd+3] (centres unmarked) [Example 7, Gadolinium-2,2′,2″-[10-(carboxymethyl)-2-(4-ethoxybenzyl)-1,4,7,10-tetraazacyclododecane-1,4,7-triyl]triacetate]	36 % of RC1	73 % of RC1	−1.32
CCOCCOCCOc1ccc(C[C@H]2CN(CC(=O)[O-])CCN(CC(=O)[O-])CCN(CC(=O)O)CCN2CC(=O)[O-])nc1.[Gd+3] [Example 6, Gadolinium 2,2′,2″-[(2S)-10-(carboxymethyl)-2-({5-[2-(2-ethoxyethoxy)ethoxy]pyridin-2-yl}methyl)-1,4,7,10-tetraazacyclododecane-1,4,7-triyl]triacetate]	32 % of RC1	47 % of RC1	−1.96
CCOc1ccc(CC2CN(CC(=O)[O-])CCN(CC(=O)[O-])CCN(CC(=O)O)CCN2CC(=O)[O-])cc1.[Gd+3] (single isomer, unassigned; diastereomer 2) [Example 9, Gadolinium-2,2′,2″-[10-(carboxymethyl)-2-(4-ethoxybenzyl)-1,4,7,10-tetraazacyclododecane-1,4,7-triyl]triacetate (racemic diastereomer 2)]	13 % of RC1	42 % of RC1	−1.36
CCOCCOCCOc1ccc(C[C@H]2CN(CC(=O)[O-])CCN(CC(=O)[O-])CCN(CC(=O)O)CCN2CC(=O)[O-])cc1.[Gd+3] [Example 2, Gadolinium-2,2′,2″-[(2S)-10-(carboxymethyl)-2-{4-[2-(2-ethoxyethoxy)ethoxy]benzyl}-1,4,7,10-tetraazacyclododecane-1,4,7-triyl]triacetate]	121 % of RC1	65 % of RC1	−1.52
CCOCCOCCOCCOc1ccc(C[C@H]2CN(CC(=O)[O-])CCN(CC(=O)[O-])CCN(CC(=O)O)CCN2CC(=O)[O-])cc1.[Gd+3] [Example 5, Gadolinium-2,2′,2″-[(2S)-10-(carboxymethyl)-2-(4-{2-[2-(2-ethoxyethoxy)ethoxy]ethoxy}benzyl)-1,4,7,10-tetraazacyclododecane-1,4,7-triyl]triacetate]	100 % of RC1	57 % of RC1	−1.74
CCOc1ccc(C[C@H]2CN(CC(=O)[O-])CCN(CC(=O)[O-])CCN(CC(=O)O)CCN2CC(=O)[O-])cc1.[Gd+3] (single isomer, unassigned; stereoisomer 2) [Example 11]	32 % of RC1	49 % of RC1	−1.37
